# Columns and labels:
# P. aeruginosa = test system: P. aeruginosa; set-up: method as in doi:10.1016/j.ica.2022.121273; conditions: Gram-negative; cited from earlier work
# CYP1A2 = target: T1, CYP1A2 (Homo sapiens, UniProt P05177); assay: Inhibition of CYP1A2 activity (7-ethoxyresorufin O-deethylation) in human liver microsomes; format: in vitro ADME; conditions: HLM, 7-ethoxyresorufin 1.3 µmol·L^−1, preincubation 30 min at 37 °C, Mean ± S.D.
# T1 construct: Pooled human liver microsomes were obtained from Biopredic (Rennes, France); tissue Biopredic (Rennes, France); host or cells: pooled human liver microsomes, seventeen donors
# T1 sequence (P05177 1-516): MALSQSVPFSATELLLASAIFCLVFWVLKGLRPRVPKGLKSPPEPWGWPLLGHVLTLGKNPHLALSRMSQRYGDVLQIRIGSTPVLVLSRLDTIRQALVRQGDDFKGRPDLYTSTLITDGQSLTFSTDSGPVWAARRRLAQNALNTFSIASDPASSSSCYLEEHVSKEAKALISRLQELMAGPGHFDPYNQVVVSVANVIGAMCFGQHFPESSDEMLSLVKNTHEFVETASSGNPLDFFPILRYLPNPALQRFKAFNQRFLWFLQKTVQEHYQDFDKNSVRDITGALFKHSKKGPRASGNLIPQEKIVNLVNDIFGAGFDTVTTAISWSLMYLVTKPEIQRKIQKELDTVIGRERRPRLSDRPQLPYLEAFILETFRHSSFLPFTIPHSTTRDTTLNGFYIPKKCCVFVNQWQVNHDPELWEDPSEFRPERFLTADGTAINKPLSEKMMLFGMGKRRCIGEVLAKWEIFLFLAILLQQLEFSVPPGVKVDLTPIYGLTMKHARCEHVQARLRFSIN
# Procedure: (§1) The following enzyme assays were performed to determine the activities of specific CYP enzymes: CYP1A2, 7-ethoxyresorufin O-deethylation; CYP2A6, coumarin 7-hydroxylation; CYP2B6, 7-ethoxy-4-(trifluoromethyl) coumarin (EFC) O-deethylation; CYP2C8 paclitaxel 6α-hydroxylation; CYP2C9, diclofenac 4′-hydroxylation; CYP2C19, diazepam N-desmethylation; CYP2D6, bufuralol 1′-hydroxylation; CYP2E1, chlorzoxazone 6-hydroxylation; and CYP3A4/5, testosterone 6β-hydroxylation. […]
# (§2) For the determination of metabolites formed from specific substrates, a Prominence LC-20A HPLC system (Shimadzu, Kyoto, Japan) with UV detection or fluorescence detection was used (see Table 2). […]
# (§3) Initially, for each enzyme assay, a preliminary experiment was carried out to determine Km and Vmax to obtain the appropriate concentration of the specific substrates for the inhibition experiments (the substrate concentration was chosen in the range corresponding to the value of the Km for each particular reaction). Data were analyzed using the Sigma plot software, as mentioned above, with spectral studies. […] In all cases, the inhibition of individual CYP activities was evaluated by plotting the respective remaining activity against the inhibitor concentration.
# [1] = Stability on recrystallization from water and methanol; format: physicochemical; conditions: recrystallized from water and from methanol, crystals of the same composition
# Procedure: [Cu2(μ-fu)(pmdien)2(H2O)2](ClO4)2 (complex No. 5) and [Cu2(μ-dtdp)(pmdien)2(H2O)2](ClO4)2 (complex No. 6) were prepared according to a published procedure. […] The structure of complex No. 6 was presented by us in [20]. The structure of complex No. 5 was measured again (the structure was previously solved with worse parameters by Mautner), and our new single crystal data were deposited under CCDC 2378750. Tables with crystal data, structure refinement, and selected bond lengths and angles are presented in ESI (Tables S1–S3). The molecular structures are depicted in Figure 1. It can be seen that the binuclear copper complexes differ in the dicarboxylato bridge. The coordination number on copper is five. All the copper centers are coordinated by three nitrogen atoms of tridentate chelating ligand pmdien and two oxygen atoms. One oxygen is from a water molecule, and the second one is from a monodentately bonding carboxylato group. The fumarato bridge contains a double bond, whereas the dithiodipropionato bridge is longer, with two sulfur atoms. Neither the double bond nor the sulfur atoms are involved in coordination with central atoms. Two perchlorate anions in each molecule are not involved in coordination. There are only hydrogen bonds among the oxygen atoms of the perchlorate group and hydrogens of the coordination cation.
# CYP3A4 = assay: Inhibition of CYP3A4 activity (testosterone 6β-hydroxylation) in human liver microsomes; format: in vitro ADME; conditions: HLM, testosterone 100 µmol·L^−1, preincubation 30 min at 37 °C, Mean ± S.D.
# Procedure: as §1, §2, §3
Compound,MIC P. aeruginosa (P. aeruginosa) [µg/mL],IC50 (CYP1A2) [µM],stability of the complex in solvents [1],IC50 (CYP3A4) [µM]
"CN(C)CCN(C)CCN(C)C.CN(C)CCN(C)CCN(C)C.O.O.O=C([O-])/C=C/C(=O)[O-].[Cu+2].[Cu+2].[O-][Cl+3]([O-])([O-])[O-].[O-][Cl+3]([O-])([O-])[O-] [Complex No. 5, [Cu2(μ-fu)(pmdien)2(H2O)2](ClO4)2]",2.11,24.97 ± 0.22,very good stability,3.72 ± 0.23
"CN(C)CCN(C)CCN(C)C.CN(C)CCN(C)CCN(C)C.O.O.O=C([O-])CCSSCCC(=O)[O-].[Cu+2].[Cu+2].[O-][Cl+3]([O-])([O-])[O-].[O-][Cl+3]([O-])([O-])[O-] [Complex No. 6, [Cu2(μ-dtdp)(pmdien)2(H2O)2](ClO4)2]",1.05,25.2 ± 0.29,,3.62 ± 0.27
